{
  "source": "patent US20110189199A1",
  "about": "“METHODS FOR P2RY5 MEDIATED REGULATION OF HAIR GROWTH AND MUTANTS THEREOF” (priority 2008, published 2011)",
  "key": {"P2RY5 receptor": {"target": "P2RY5 receptor (Homo sapiens, UniProt P43657, DEL128-129/DEL256-257/Q258T)", "sequence (P43657 with tags, fused parts or gaps DEL128-129/DEL256-257/Q258T)": "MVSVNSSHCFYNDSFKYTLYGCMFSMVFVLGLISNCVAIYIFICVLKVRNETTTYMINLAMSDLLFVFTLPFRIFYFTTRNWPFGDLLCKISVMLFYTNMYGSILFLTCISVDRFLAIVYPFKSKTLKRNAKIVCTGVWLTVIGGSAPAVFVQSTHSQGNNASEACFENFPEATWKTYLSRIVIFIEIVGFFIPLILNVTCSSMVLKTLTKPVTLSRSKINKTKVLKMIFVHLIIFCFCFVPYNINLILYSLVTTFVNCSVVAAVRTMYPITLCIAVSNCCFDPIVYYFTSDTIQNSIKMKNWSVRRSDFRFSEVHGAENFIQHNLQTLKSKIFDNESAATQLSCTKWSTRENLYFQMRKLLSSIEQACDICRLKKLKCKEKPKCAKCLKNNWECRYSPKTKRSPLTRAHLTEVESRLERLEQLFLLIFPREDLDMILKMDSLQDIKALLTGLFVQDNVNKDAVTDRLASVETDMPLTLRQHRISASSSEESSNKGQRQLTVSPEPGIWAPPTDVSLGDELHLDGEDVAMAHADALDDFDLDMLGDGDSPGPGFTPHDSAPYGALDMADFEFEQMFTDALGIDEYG", "assay": "Tango P2RY5 U2OS beta-lactamase reporter assay", "assay_type": "cell-based", "protocol": "The Tango™ P2RY5 U2OS antibiotic selected pool cells were plated at 10,000 cells/well into a 384 well clear bottom assay plate in Freestyle™ media. FBS (Fetal Bovine 20%) or a PMA concentration dilution series (in Freestyle™ media) was then added to the plate at the indicated concentrations. The plate was placed at 37° C. 5% CO2 for 24 hours for receptor stimulation followed by betalactamase substrate loading for 2 hours. (The P2RY5 cells were also tested with a 48 hour stimulation time with equivalent results.)\n(§1) The antibiotic selected Tango™ P2RY5 U2OS cells were cultured to 80-90% confluence in tissueculture flasks. The growth media was then removed and replaced with Freestyle™ media either with (stimulated) or without (un-stimulated) 20% FBS. The cultures were then placed at 37° C. 5% CO2 for 48 hours for receptor stimulation followed by beta-lactamase substrate loading for 2 hours. Responsive cells were then sorted by FACS into a single pool and three 96 well plates of clones.\nThe Tango™ P2RY5 U2OS cells were plated at 10,000 cells/well into a 384 well clear bottom assay plate in Freestyle™ media. FBS was then added to half the wells in the assay to a concentration of 20% (stimulated) while the other half of the assay received an equal volume of Freestyle™ Media (un-stimulated). The plate was placed at 37° C. 5% CO2 for 48 hours for receptor stimulation followed by betalactamase substrate loading for 2 hours.\nas §1, with “selected FACS sorted responsive cell” for “selected”, “U2OS Pool was” for “U2OS cells were”, “in two tissue culture” for “in tissueculture”, “a green cell pool from the un-stimulated cell sample, and into a blue cell” for “a single”, “of clones from the FBS stimulated sample.” for “of clones.”\nThe Tango™ P2RY5 U2OS sorted pool cells were plated at 10,000 cells/well into a 384 well clear bottom assay plate in FreeStyle™ media. The dFBS was immediately added to plate to final concentration of 20% by volume (stimulated). An equal volume of Free Style™ media was added to the un-stimulated wells. The plate was placed at 37° C. 5% CO2 for 48 hrs for receptor stimulation followed by beta-lactamase substrate loading for 2 hours.\nThe Tango™ P2RY5 U2OS sorted pool cells were plated at 10,000 cells/well into a 384 well clear bottom assay plate in FreeStyle™ media. The plate was placed at 37° C. […]"}, "[1]": {"system": "Tango™ P2RY5 U2OS Clone 10F cells", "assay": "Cell death at high PMA concentrations in the Tango P2RY5 assay", "assay_type": "cell-based", "protocol": "The Tango™ P2RY5 U2OS Clone 10F cells were plated at 10,000 cells/well into a 384 well clear bottom assay plate in 32 μl/well Freestyle™ medium. 4 μl/well 10× DMSO in Freestyle™ medium was then added to the wells of the assay plate to bring the final DMSO concentration in the wells to 0% (no DMSO), 0.1%, 0.5% or 1.0% DMSO. 4 μl/well PMA (10× in Freestyle™ medium) was immediately added to the plate to the indicated concentrations. The plate was placed at 37° C./5% CO2 for 18 hours for receptor stimulation followed by beta-lactamase substrate loading for 2 hours.\nThe Tango™ P2RY5 U2OS Clone 10F cells were plated at 10,000 cells/well into two 384 well clear bottom assay plate in 32 μl/well Freestyle™ medium. One plate was placed at 37° C./5% CO2 for 18 hours prior to PMA stimulation for 5 hours while PMA was immediately added to the other plate for an 18 hours stimulation. At the time of stimulation 4 μl/well of a 10× stock of DMSO in Freestyle™ medium was added to the wells of the assay plate to bring the final DMSO concentration in the wells to 0.1% DMSO. 4 μl/well PMA (10× in Freestyle™ medium) was then added to the plate to the indicated concentrations. The plates were placed at 37° C./5% CO2 for 5 or 18 hours for receptor stimulation followed by beta-lactamase substrate loading for 2 h.\nTango™ P2RY5 U2OS clone 10F cells were cryopreserved at 2.5×10̂6 cells/ml in Recovery™ freezing medium in liquid nitrogen for several days. The cells were thawed into Freestyle™ assay medium prior to use in the assay. The Tango™ P2RY5 U2OS Clone 10F cells were plated at 10,000 cells/well into two 384 well clear bottom assay plate in 32 μl/well Freestyle™ medium. One plate was placed at 37° C./5% CO2 for 18 hours prior to PMA stimulation for 5 hours while PMA was immediately added to the other plate for an 18 hour stimulation. At the time of stimulation 4 μl/well of a 10× stock of DMSO in Freestyle™ medium was added to the wells of the assay plate to bring the final DMSO concentration in the wells to 0.1% DMSO. […]"}},
  "data": [
    {"smiles": "CCCCCCCCCCCCCC(=O)O[C@@H]1[C@@H](C)[C@@]2(O)[C@@H](C=C(CO)C[C@]3(O)C(=O)C(C)=C[C@@H]23)[C@@H]2C(C)(C)[C@]12OC(C)=O", "note": "[PMA]", "values": [
      {"measurement": "assay window, 5 hour vs 18 hour stimulation time", "setting": "P2RY5 receptor; Clone 10F, 5 hour stimulation, 0.1% DMSO", "result": "larger assay window than the 18 hour stimulation time"},
      {"measurement": "response to PMA, cryopreserved vs dividing cells", "setting": "P2RY5 receptor; Clone 10F, cryopreserved cells, 5 or 18 hours stimulation", "result": "slightly less potent response"},
      {"measurement": "beta-lactamase response through the P2RY5 receptor", "setting": "P2RY5 receptor; Green sort pool, 5 hours stimulation", "result": "slight inducible beta-lactamase response"},
      {"measurement": "beta-lactamase response through the P2RY5 receptor", "setting": "P2RY5 receptor; sorted clones, 18 hours stimulation", "result": "concentration dependant beta-lactamase response"},
      {"measurement": "PMA concentrations with cell death in the wells", "setting": "[1]; cryopreserved cells, 18 hours stimulation", "result": "greater than 100 nM"},
      {"measurement": "PMA concentrations with cell death in the wells", "setting": "[1]; dividing cells, 5 hour stimulation", "result": "> 1", "unit": "µM"},
      {"measurement": "PMA concentrations with cell death in the wells", "setting": "[1]; dividing cells, 18 hour stimulation", "result": "greater than 100 nM"}
    ]}
  ]
}
